{
  "source": "patent US10370343B2",
  "about": "“[6,6] Fused bicyclic HDAC8 inhibitors” (FORMA Therapeutics, Inc., priority 2015, dated 2019)",
  "note": "Counter-ions that a name gives are not always drawn.",
  "data": [
    {"molecular_target": "T1, Full length human recombinant HDAC8 protein (Homo sapiens, UniProt Q9BY41)", "T1 construct": "Full length human recombinant HDAC8 protein was expressed in baculoviral system; made in house", "T1 sequence (Q9BY41 1-377)": "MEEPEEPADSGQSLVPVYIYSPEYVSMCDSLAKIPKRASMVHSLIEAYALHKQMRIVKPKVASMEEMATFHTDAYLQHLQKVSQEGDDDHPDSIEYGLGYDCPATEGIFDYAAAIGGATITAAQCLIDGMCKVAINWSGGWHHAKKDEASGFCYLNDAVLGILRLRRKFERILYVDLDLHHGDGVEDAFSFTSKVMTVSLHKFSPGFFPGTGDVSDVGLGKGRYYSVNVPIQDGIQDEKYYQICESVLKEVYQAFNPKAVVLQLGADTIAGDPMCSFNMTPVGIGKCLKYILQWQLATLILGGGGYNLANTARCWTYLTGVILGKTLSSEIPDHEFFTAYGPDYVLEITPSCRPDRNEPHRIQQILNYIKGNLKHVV", "assay": "In vitro histone deacetylase assay: enzymatic HDAC8 electrophoretic mobility shift assay", "type": "biochemical", "conditions": "electrophoretic mobility shift assay; enzyme 1 nM; 2 μM fluorescently labeled peptide substrate RHKK(Ac)-NH2; 25° C.; 12 concentrations; read-out: HDAC8 IC50", "units": {"IC50": "nM"}, "values": [
      {"smiles": "O=C(NO)c1ccc2c(c1)N(Cc1ccccc1)CC(C(=O)NC1CCOCC1)O2", "note": "(stereo not shown) [Compound I-2, 4-benzyl-N^6-hydroxy-N^2-(tetrahydro-2H-pyran-4-yl)-3,4-dihydro-2H-benzo[b][1,4]oxazine-2,6-dicarboxamide]", "IC50": "25 to 100"},
      {"smiles": "CCCn1c(CN2C(=O)COc3ccc(C(=O)NO)cc32)nc2ccccc21", "note": "[Compound I-282, N-hydroxy-3-oxo-4-((1-propyl-1H-benzo[d]imidazol-2-yl)methyl)-3,4-dihydro-2H-benzo[b][1,4]oxazine-6-carboxamide]", "IC50": "100 to 1000"},
      {"smiles": "COCCn1c(N2CCCc3c(C(=O)NO)cccc32)nc2ccccc21", "note": "[Compound I-13, N-hydroxy-1-(1-(2-methoxyethyl)-1H-benzo[d]imidazol-2-yl)-1,2,3,4-tetrahydroquinoline-5-carboxamide]", "IC50": "> 1000"},
      {"smiles": "O=C(NO)c1ccc2c(c1)N(CC1CCOCC1)C(=O)CO2", "note": "[Compound I-48, N-hydroxy-3-oxo-4-((tetrahydro-2H-pyran-4-yl)methyl)-3,4-dihydro-2H-benzo[b][1,4]oxazine-6-carboxamide]", "IC50": "100 to 1000"},
      {"smiles": "COc1ccc(CN2C(=O)C(C)Oc3cc(C(=O)NO)ccc32)cc1", "note": "(stereo not shown) [Compound I-91, N-hydroxy-4-(4-methoxybenzyl)-2-methyl-3-oxo-3,4-dihydro-2H-benzo[b][1,4]oxazine-7-carboxamide]", "IC50": "100 to 1000"},
      {"smiles": "COc1ccc(CN2CCOc3ccc(C(=O)NO)cc32)cc1", "note": "[Compound I-115, N-hydroxy-4-(4-methoxybenzyl)-3,4-dihydro-2H-benzo[b][1,4]oxazine-6-carboxamide]", "IC50": "100 to 1000"},
      {"smiles": "CN(C)S(=O)(=O)c1ccc(OCCN2C(=O)COc3ccc(C(=O)NO)cc32)cc1", "note": "[Compound I-56, 4-(2-(4-(N,N-dimethylsulfamoyl)phenoxy)ethyl)-N-hydroxy-3-oxo-3,4-dihydro-2H-benzo[b][1,4]oxazine-6-carboxamide]", "IC50": "25 to 100"},
      {"smiles": "CN1CC(C(=O)NCc2ccccc2)Oc2ccc(C(=O)NO)cc21", "note": "(stereo not shown) [Compound I-5, N^2-benzyl-N^6-hydroxy-4-methyl-3,4-dihydro-2H-benzo[b][1,4]oxazine-2,6-dicarboxamide hydrochloride]", "IC50": "25 to 100"},
      {"smiles": "O=C(NO)c1ccc2c(c1)N(Cc1c(Cl)cccc1Cl)CCO2", "note": "[Compound I-23, 4-(2,6-dichlorobenzyl)-N-hydroxy-3,4-dihydro-2H-benzo[b][1,4]oxazine-6-carboxamide]", "IC50": "100 to 1000"},
      {"smiles": "O=C(NO)c1ccc2c(c1)CCCN2c1nc2ccccc2[nH]1", "note": "[Compound I-107, 1-(1H-benzo[d]imidazol-2-yl)-N-hydroxy-1,2,3,4-tetrahydroquinoline-6-carboxamide]", "IC50": "> 1000"},
      {"smiles": "CS(=O)(=O)c1ccc(CN2C(=O)COc3ccc(C(=O)NO)cc32)c(Cl)c1", "note": "[Compound I-93, 4-(2-chloro-4-(methylsulfonyl)benzyl)-N-hydroxy-3-oxo-3,4-dihydro-2H-benzo[b][1,4]oxazine-6-carboxamide]", "IC50": "< 25"},
      {"smiles": "O=C(NO)c1ccc2c(c1)N(Cc1cc(C(F)(F)F)ccc1F)C(=O)CO2", "note": "[Compound I-73, 4-(2-fluoro-5-(trifluoromethyl)benzyl)-N-hydroxy-3-oxo-3,4-dihydro-2H-benzo[b][1,4]oxazine-6-carboxamide]", "IC50": "< 25"},
      {"smiles": "O=C(NO)c1ccc2c(c1)N(Cc1cccc(S(=O)(=O)C(F)(F)F)c1)C(=O)CO2", "note": "[Compound I-18, N-hydroxy-3-oxo-4-(3-((trifluoromethyl)sulfonyl)benzyl)-3,4-dihydro-2H-benzo[b][1,4]oxazine-6-carboxamide]", "IC50": "100 to 1000"},
      {"smiles": "CCn1c(CN2C(=O)COc3ccc(C(=O)NO)cc32)nc2ccc(Cl)cc21", "note": "[Compound I-269, 4-((6-chloro-1-ethyl-1H-benzo[d]imidazol-2-yl)methyl)-N-hydroxy-3-oxo-3,4-dihydro-2H-benzo[b][1,4]oxazine-6-carboxamide]", "IC50": "100 to 1000"},
      {"smiles": "O=C(NO)c1ccc2c(c1)N(Cc1ccccc1OC(F)(F)F)CCO2", "note": "[Compound I-25, N-hydroxy-4-(2-(trifluoromethoxy)benzyl)-3,4-dihydro-2H-benzo[b][1,4]oxazine-6-carboxamide]", "IC50": "100 to 1000"},
      {"smiles": "CCCN1C(=O)COc2ccc(C(=O)NO)cc21", "note": "[Compound I-39, N-hydroxy-3-oxo-4-propyl-3,4-dihydro-2H-benzo[b][1,4]oxazine-6-carboxamide]", "IC50": "100 to 1000"},
      {"smiles": "Cc1cccc(CN2CCOc3ccc(C(=O)NO)cc32)c1", "note": "[Compound I-122, N-hydroxy-4-(3-methylbenzyl)-3,4-dihydro-2H-benzo[b][1,4]oxazine-6-carboxamide]", "IC50": "25 to 100"},
      {"smiles": "COc1ccccc1CN1CCOc2ccc(C(=O)NO)cc21", "note": "[Compound I-126, N-hydroxy-4-(2-methoxybenzyl)-3,4-dihydro-2H-benzo[b][1,4]oxazine-6-carboxamide]", "IC50": "100 to 1000"},
      {"smiles": "CC(c1ccccc1Cl)N1CCOc2ccc(C(=O)NO)cc21", "note": "(stereo not shown) [Compound I-136, 4-(1-(2-chlorophenyl)ethyl)-N-hydroxy-3,4-dihydro-2H-benzo[b][1,4]oxazine-6-carboxamide]", "IC50": "100 to 1000"},
      {"smiles": "O=C(NO)c1ccc2c(c1)N(Cc1cccc(S(=O)(=O)C(F)(F)F)c1)CCS2(=O)=O", "note": "[Compound I-15, N-hydroxy-4-(3-((trifluoromethyl)sulfonyl)benzyl)-3,4-dihydro-2H-benzo[b][1,4]thiazine-6-carboxamide-1,1-dioxide]", "IC50": "< 25"},
      {"smiles": "Cc1ccccc1CN1CCOc2ccc(C(=O)NO)cc21", "note": "[Compound I-127, N-hydroxy-4-(2-methylbenzyl)-3,4-dihydro-2H-benzo[b][1,4]oxazine-6-carboxamide]", "IC50": "25 to 100"},
      {"smiles": "O=C(NO)c1ccc2c(c1)N(Cc1ccccc1OC(F)F)CCO2", "note": "[Compound I-131, 4-(2-(difluoromethoxy)benzyl)-N-hydroxy-3,4-dihydro-2H-benzo[b][1,4]oxazine-6-carboxamide]", "IC50": "25 to 100"},
      {"smiles": "O=C(NO)c1ccc2c(c1)N(Cc1cccc(OC(F)(F)F)c1)C(=O)CO2", "note": "[Compound I-146, N-hydroxy-3-oxo-4-(3-(trifluoromethoxy)benzyl)-3,4-dihydro-2H-benzo[b][1,4]oxazine-6-carboxamide]", "IC50": "< 25"},
      {"smiles": "CC(c1ccc(S(C)(=O)=O)cc1)N1CCS(=O)(=O)c2ccc(C(=O)NO)cc21", "note": "(stereo not shown) [Compound I-16, N-hydroxy-4-(1-(4-(methylsulfonyl)phenyl)ethyl)-3,4-dihydro-2H-benzo[b][1,4]thiazine-6-carboxamide-1,1-dioxide]", "IC50": "< 25"},
      {"smiles": "O=C(NO)c1ccc2c(c1)N(C(=O)N1CC3(CCOCC3)c3ccccc31)CCO2", "note": "[Compound I-156, N-hydroxy-4-(2′,3′,5′,6′-tetrahydrospiro[indoline-3,4′-pyran]-1-carbonyl)-3,4-dihydro-2H-benzo[b][1,4]oxazine-6-carboxamide]", "IC50": "> 1000"},
      {"smiles": "CS(=O)(=O)c1ccccc1CN1CCOc2ccc(C(=O)NO)cc21", "note": "[Compound I-130, N-hydroxy-4-(2-(methylsulfonyl)benzyl)-3,4-dihydro-2H-benzo[b][1,4]oxazine-6-carboxamide]", "IC50": "100 to 1000"},
      {"smiles": "O=C(NO)c1ccc2c(c1)N(Cc1ccccc1-c1ccccc1)C(=O)CO2", "note": "[Compound I-257, 4-([1,1′-biphenyl]-2-ylmethyl)-N-hydroxy-3-oxo-3,4-dihydro-2H-benzo[b][1,4]oxazine-6-carboxamide]", "IC50": "100 to 1000"},
      {"smiles": "CS(=O)(=O)c1ccc(CN2CCOc3ccc(C(=O)NO)cc32)c(C(F)(F)F)c1", "note": "[Compound I-137, N-hydroxy-4-(4-(methylsulfonyl)-2-(trifluoromethyl)benzyl)-3,4-dihydro-2H-benzo[b][1,4]oxazine-6-carboxamide]", "IC50": "25 to 100"}
    ]}
  ]
}
